Measured values published in article PMC12040169 (PLOS Biology, 2025).

experiment: in vitro; details: human, hela cells

SMILES | viability at 28.5 h, 10 µM
CN(Cc1ccc(-c2ccc(S(C)(=O)=O)cc2)nc1)C1CCN(C(=O)Oc2ccc(F)cc2)CC1 [CBK166097] | 91.5%

same assay, conditions: human, hela cells, % viability

SMILES | viability at 28.5 h, 10 µM
COCCCNC(=O)c1cnn2c(C)c(Cc3cccc(F)c3)c(C)nc12 [CBK162126] | 116%
CCc1c(C)nc2c(C(=O)NCCCN3CCCC3=O)cnn2c1C [CBK162128] | 96.2%
CCc1c(C)nc2c(C(=O)NCCOC)cnn2c1C [CBK162143] | 93.9%
CCc1c(C)nc2c(C(=O)N3CCCC3COC)cnn2c1C (centres unmarked) [CBK162146] | 92.1%
Cc1nc2c(C(=O)NCCCN3CCCC3=O)cnn2c(C)c1Cc1cccnc1 [CBK162151] | 108%
CCOCCCNC(=O)c1cnn2c(C)c(Cc3cccnc3)c(C)nc12 [CBK162152] | 100%
Cc1nc2c(C(=O)NCCC3OCCO3)cnn2c(C)c1Cc1cccnc1 [CBK162159] | 108%
Cc1nc2c(C(=O)NCC3CCCO3)cnn2c(C)c1Cc1cccnc1 (centres unmarked) [CBK162160] | 85.8%
COc1ccc(Cc2c(C)nc3c(C(=O)NCC4CCCO4)cnn3c2C)cc1 (centres unmarked) [CBK162183] | 88.5%
Cc1nc2c(C(=O)N3CCOCC3)cnn2c(C)c1Cc1ccccc1 [CBK162201] | 113%
Cc1nc2c(C(=O)NCC(F)(F)F)cnn2c(C)c1Cc1ccccc1 [CBK162208] | 94.8%
COCC1CCCN1C(=O)c1cnn2c(C)c(Cc3ccccc3)c(C)nc12 (centres unmarked) [CBK162213] | 93.9%
COCCCNC(=O)c1cnn2c(C)c(Cc3ccccc3)c(C)nc12 [CBK162216] | 94.6%
CS(=O)(=O)c1ccc(-c2ccc(COC3CCN(C(=O)CCCc4ccc(F)cc4)CC3)cn2)cc1 [CBK162229T] | 91.6%
CS(=O)(=O)c1ccc(-c2ccc(COC3CCN(C(=O)Cc4cccc(C(F)(F)F)c4)CC3)cn2)cc1 [CBK162231T] | 102%
COc1ccc(C(=O)CN2CCC3(CC2)CC(=O)c2cc(Br)ccc2O3)cc1 [CBK162265] | 114%
CS(=O)(=O)c1ccc(-c2ccc(OCC3CCN(C(=O)c4cccc(C#N)c4)CC3)nc2)cc1 [CBK162283] | 93.3%
O=C(Nc1ccc2c(c1)OCCO2)N1CCN(c2cc(C(F)(F)F)ccn2)CC1 [CBK162331] | 99.4%
COc1ccc(CNC(=O)N2CCN(c3cc(C(F)(F)F)ccn3)CC2)cc1OC [CBK162344] | 82.5%
COc1cc(NC(=O)N2CCN(c3cc(C(F)(F)F)ccn3)CC2)cc(OC)c1OC [CBK162349] | 95.2%

SMILES | viability at 28.5 h, 10 µM
O=C1C2CCCCN2C(=O)N1c1cccnc1 (centres unmarked) [CBK162359] | 114%
CSCCCN1C(=O)CN(Cc2ccccc2)C1=O [CBK162363] | 91.4%
O=C1CN(Cc2ccccc2)C(=O)N1CC1CCCCC1 [CBK162367] | 93.7%
COCCN1C(=O)CN(Cc2ccccc2)C1=O [CBK162369] | 95.1%
CS(=O)(=O)c1ccc(-c2ccc(CN3CCN(C(=O)Cc4ccc(F)cc4F)CC3)cn2)cc1 [CBK162618T] | 122%
Cc1ccc(S(=O)(=O)N(Cc2c(F)cccc2F)C2CCNCC2)cc1 [CBK163927T] | 89.9%
CCCCc1ccc(N)c(C)c1 [CBK164057C] | 89.9%
CN(Cc1ccc(-c2ccc(S(C)(=O)=O)cc2)nc1)C1CCN(C(=O)c2ccc(Cl)c(Cl)c2)CC1 [CBK164101T] | 104%
CN(Cc1ccc(-c2ccc(S(C)(=O)=O)cc2)nc1)C1CCN(C(=O)CC2CCCCC2)CC1 [CBK164105T] | 92.6%
O=C(N1CCC(Oc2nccnc2OCc2ccc(Cl)cc2F)CC1)C(F)(F)F [CBK164142] | 89.5%
COc1cc(C(=O)N2CCC3(CC2)CC(=O)c2cc(C)c(C)cc2O3)ccc1C [CBK164202] | 105%
O=C(c1n[nH]nc1-c1ccccc1)N1CCCC(C(F)(F)F)C1 (centres unmarked) [CBK164228] | 96.1%
COc1cc(OC)cc(C(=O)N2CCC3(CC2)CC(=O)c2c(OC)cc(OC)cc2O3)c1 [CBK164233] | 105%
COc1ccc(CCNC(=O)c2cnc(-c3ccc(Cl)cc3)c(-c3cccc(CNC(C)=O)c3)c2)cc1OC [CBK164413] | 95%
CCCN(C)Cc1ccc(-c2nnn(CC(=O)NCc3ccc(CC)cc3)n2)cc1NC(C)=O [CBK164703] | 105%
CCCN(C)Cc1ccc(-c2cn(CC(=O)NCc3ccc(C(F)(F)F)cc3)nn2)cc1 [CBK164719] | 92.9%
Cc1c(S(=O)(=O)N2CCC(N)C2)sc2ccc(Cl)cc12 (centres unmarked) [CBK164970] | 89.3%
CC(C)(C)c1ccc(N(C2CCNCC2)S(=O)(=O)c2cccc(C(F)(F)F)c2)cc1 [CBK165056T] | 114%
CC(C)(C)c1ccc(N(C2CCNCC2)S(=O)(=O)c2ccc(Cl)cc2Cl)cc1 [CBK165067T] | 51%
Cc1ccccc1S(=O)(=O)N(c1ccc(C(C)(C)C)cc1)C1CCNCC1 [CBK165074T] | 97.8%

SMILES | viability at 28.5 h, 10 µM
COc1ccc(S(=O)(=O)N(c2ccccc2)C2CCNCC2)cc1OC [CBK165076T] | 73.9%
CC(C)c1ccc(S(=O)(=O)N(c2ccccc2)C2CCNCC2)cc1 [CBK165088T] | 108%
CCCc1ccc(S(=O)(=O)N(c2ccccc2)C2CCNCC2)cc1 [CBK165121T] | 108%
COc1cccc(OCc2cnc(-c3ccc(Cl)cc3)c(-c3cccc(CNC(C)=O)c3)c2)c1 [CBK165225] | 90.5%
COCCOC(=O)N1CCC(N(C)Cc2ccc(-c3ccc(S(C)(=O)=O)cc3)nc2)CC1 [CBK165258T] | 96.7%
CC(=O)OCC(=O)N1CCC(N(C)Cc2ccc(-c3ccc(S(C)(=O)=O)cc3)nc2)CC1 [CBK165268] | 116%
CC(C)OC(=O)N1CCC(CNc2ncc(-c3ccc(S(C)(=O)=O)cc3)cn2)CC1 [CBK165367] | 99.1%
CC(C)OC(=O)N1CCC(N(C)Cc2ccc(-c3ccc(S(C)(=O)=O)cc3)cn2)CC1 [CBK165581T] | 90.8%
CN(Cc1ccc(-c2ccc(S(C)(=O)=O)cc2)cn1)C1CCN(C(=O)CC(C)(C)O)CC1 [CBK165684T] | 93.1%
CCc1nc2c(C(=O)NCCNC(C)=O)cnn2c(CC)c1Cc1ccc(Cl)cc1 [CBK165730] | 86%
O=C(Cn1cc(-c2ccc(CN3CCOCC3)cc2)nn1)NCc1cccc(C(F)(F)F)c1 [CBK165803] | 87.5%
COc1ccc(C(=O)N2CCC(N(C)Cc3ccc(-c4ccc(S(C)(=O)=O)cc4)nc3)CC2)cc1Cl [CBK165991T] | 95.8%
Cc1ccc2c(c1)OC1(CCN(C(=O)c3cc4c(C)nn(C)c4s3)CC1)CC2=O [CBK166037] | 79.5%
COc1cc(C(=O)N2CCC3(CC2)CC(=O)c2ccc(C)cc2O3)ccc1O [CBK166045] | 86.6%
CN(CC1CCN(C(=O)OC(C)(C)C)CC1)c1ccnc(-c2ccncc2)n1 [CBK166064] | 101%
[2H]C(C(=O)NCc1ccc2c(c1)CCC2)n1cc(-c2ccc(CN3CCC(C)CC3)cc2)nn1 (centres unmarked) [CBK166081-L1] | 97.7%
CC(C)Nc1nc2ccccc2nc1OCc1ccc(C2CC2C(=O)N(C)C)cc1 (centres unmarked) [CBK166091] | 92.5%
CC1CCN(Cc2ccc(-c3ccc(CNC(=O)c4ccc5c(c4)OC(F)(F)O5)s3)cc2)CC1 [CBK166113] | 107%
